Measured values reported in ChEMBL document CHEMBL1201862, “PubChem BioAssay data set” (2004).
Activity calls are given as the source filed them.

How the values were obtained:
[1] = target: T1, Leucine aminopeptidase (Plasmodium falciparum 3D7, UniProt Q8IL11); assay: P. falciparum M17LAP inhibitors, primary screen, biochemical, fluorogenic H-Leu-NHMec substrate, 1536-well (AID 1619); format: functional
T1 sequence (Q8IL11 whole entry): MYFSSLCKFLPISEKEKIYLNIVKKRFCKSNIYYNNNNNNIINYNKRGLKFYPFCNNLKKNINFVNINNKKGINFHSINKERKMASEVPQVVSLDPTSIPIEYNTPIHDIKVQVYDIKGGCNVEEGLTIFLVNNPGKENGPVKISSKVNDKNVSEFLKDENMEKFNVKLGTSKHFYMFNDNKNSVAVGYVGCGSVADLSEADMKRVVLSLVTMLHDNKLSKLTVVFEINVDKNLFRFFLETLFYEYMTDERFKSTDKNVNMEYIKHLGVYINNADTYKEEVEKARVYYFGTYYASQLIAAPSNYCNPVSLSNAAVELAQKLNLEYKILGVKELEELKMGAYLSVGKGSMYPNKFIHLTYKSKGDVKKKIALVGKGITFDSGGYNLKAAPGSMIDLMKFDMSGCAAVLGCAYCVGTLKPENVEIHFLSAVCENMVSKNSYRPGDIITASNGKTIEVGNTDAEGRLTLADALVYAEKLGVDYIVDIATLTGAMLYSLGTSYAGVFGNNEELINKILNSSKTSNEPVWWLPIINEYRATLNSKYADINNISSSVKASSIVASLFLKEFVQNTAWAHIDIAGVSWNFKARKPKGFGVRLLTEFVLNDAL

[2] = target: T2, RNA-binding protein pos-1 (Caenorhabditis elegans, UniProt G5EF15); assay: inhibitors of POS-1/mex-3 RNA binding, dose response, biochemical, fluorescence polarization (AID 1964);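 note: purified POS-1 fused to maltose binding protein made in E. coli; potency of compounds blocking POS-1 binding to fluorescent RNA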
T2 sequence (G5EF15 whole entry): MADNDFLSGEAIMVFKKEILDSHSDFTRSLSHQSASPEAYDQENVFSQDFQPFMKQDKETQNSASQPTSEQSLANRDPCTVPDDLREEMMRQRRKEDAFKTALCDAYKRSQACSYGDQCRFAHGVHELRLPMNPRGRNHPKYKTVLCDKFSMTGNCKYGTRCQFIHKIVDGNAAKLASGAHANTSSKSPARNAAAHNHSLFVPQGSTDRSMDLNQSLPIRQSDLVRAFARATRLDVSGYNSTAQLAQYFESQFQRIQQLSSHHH

[3] = target: T3, Zinc finger protein mex-5 (Caenorhabditis elegans, UniProt Q9XUB2); assay: MEX-5/TCR-2 RNA interaction inhibitors, dose response, biochemical, C. elegans, fluorescence polarization (AID 1960)
T3 sequence (Q9XUB2 whole entry): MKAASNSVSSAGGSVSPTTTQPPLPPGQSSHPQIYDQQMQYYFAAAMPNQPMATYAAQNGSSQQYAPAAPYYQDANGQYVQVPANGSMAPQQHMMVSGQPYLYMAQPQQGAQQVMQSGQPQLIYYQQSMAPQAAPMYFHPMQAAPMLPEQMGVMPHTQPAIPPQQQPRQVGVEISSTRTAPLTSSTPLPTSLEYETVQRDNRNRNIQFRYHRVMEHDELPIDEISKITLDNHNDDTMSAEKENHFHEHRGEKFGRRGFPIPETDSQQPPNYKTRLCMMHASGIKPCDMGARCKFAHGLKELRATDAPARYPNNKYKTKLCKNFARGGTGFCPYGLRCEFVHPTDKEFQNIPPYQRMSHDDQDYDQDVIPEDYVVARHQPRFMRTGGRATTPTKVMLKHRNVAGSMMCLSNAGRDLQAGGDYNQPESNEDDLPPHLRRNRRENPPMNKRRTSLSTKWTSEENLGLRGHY

[4] = target: Intestinal-type alkaline phosphatase (Homo sapiens, UniProt P09923); assay: activation of human intestinal alkaline phosphatase – biochemical, dose response (AID 488873); format: functional
[5] = target: Intestinal-type alkaline phosphatase (Mus musculus, UniProt P24822); assay: mouse intestinal alkaline phosphatase activators, dose response, biochemical, luminescence, uHTS hits (AID 488783); format: functional
[6] = target: T4, Alkaline phosphatase, tissue-nonspecific isozyme (Homo sapiens, UniProt P05186); assay: TNAP enzyme activators, dose response, selectivity assay for mouse IAP activator project, biochemical, TNAP isozyme, mouse IAP uHTS hits (AID 488880); format: functional
T4 sequence (P05186 whole entry): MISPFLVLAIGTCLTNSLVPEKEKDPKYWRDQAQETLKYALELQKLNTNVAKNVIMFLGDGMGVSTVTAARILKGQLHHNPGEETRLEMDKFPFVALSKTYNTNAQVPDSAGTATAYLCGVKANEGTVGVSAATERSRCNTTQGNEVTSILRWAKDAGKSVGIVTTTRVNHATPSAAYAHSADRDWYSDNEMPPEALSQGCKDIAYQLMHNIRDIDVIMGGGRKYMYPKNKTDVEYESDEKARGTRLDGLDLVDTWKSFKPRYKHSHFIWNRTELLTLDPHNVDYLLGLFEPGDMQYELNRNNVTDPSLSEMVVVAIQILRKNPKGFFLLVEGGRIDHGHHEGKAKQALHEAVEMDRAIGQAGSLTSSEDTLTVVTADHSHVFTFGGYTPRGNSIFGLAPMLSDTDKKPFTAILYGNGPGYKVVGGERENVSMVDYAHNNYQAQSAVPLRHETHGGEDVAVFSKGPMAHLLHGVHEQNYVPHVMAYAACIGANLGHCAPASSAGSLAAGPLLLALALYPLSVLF

[7] = target: T5, Voltage-gated N-type calcium channel alpha-1B subunit/Amyloid beta A4 precursor protein-binding family A member 1 (Homo sapiens, UniProt Q00975+Q02410); format: protein assay
[8] = target: NS3 (Hepatitis C virus, UniProt A3EZJ3); assay: PubChem AID 2173; design: species or system Hepacivirus hominis
[9] = target: T5, Voltage-gated N-type calcium channel alpha-1B subunit/Amyloid beta A4 precursor protein-binding family A member 1; format: protein assay; remark: listed apart in the source
[10] = target: Troponin, cardiac muscle (Homo sapiens, UniProt P19429+P45379+P63316); assay: inhibitors of cardiac thin filament calcium sensitivity, dose response, biochemical, fluorescence, cardiac regulated thin filaments, triplicate IC50 (AID 504742); format: protein-complex assay
[11] = target: T5, Voltage-gated N-type calcium channel alpha-1B subunit/Amyloid beta A4 precursor protein-binding family A member 1; assay: disruptors of Mint-PDZ/N-type channel peptide interaction – biochemical, HTRF, set 2, SAR follow-up (AID 434980); format: functional
[12] = target: T6, Lysine-specific demethylase 4A (Homo sapiens, UniProt O75164); assay: JMJD2A histone demethylase inhibitors, dose response, selectivity assay for GASC-1 inhibitor project, biochemical, DELFIA europium, cherry-picked samples (AID 488840)
T6 sequence (O75164 whole entry): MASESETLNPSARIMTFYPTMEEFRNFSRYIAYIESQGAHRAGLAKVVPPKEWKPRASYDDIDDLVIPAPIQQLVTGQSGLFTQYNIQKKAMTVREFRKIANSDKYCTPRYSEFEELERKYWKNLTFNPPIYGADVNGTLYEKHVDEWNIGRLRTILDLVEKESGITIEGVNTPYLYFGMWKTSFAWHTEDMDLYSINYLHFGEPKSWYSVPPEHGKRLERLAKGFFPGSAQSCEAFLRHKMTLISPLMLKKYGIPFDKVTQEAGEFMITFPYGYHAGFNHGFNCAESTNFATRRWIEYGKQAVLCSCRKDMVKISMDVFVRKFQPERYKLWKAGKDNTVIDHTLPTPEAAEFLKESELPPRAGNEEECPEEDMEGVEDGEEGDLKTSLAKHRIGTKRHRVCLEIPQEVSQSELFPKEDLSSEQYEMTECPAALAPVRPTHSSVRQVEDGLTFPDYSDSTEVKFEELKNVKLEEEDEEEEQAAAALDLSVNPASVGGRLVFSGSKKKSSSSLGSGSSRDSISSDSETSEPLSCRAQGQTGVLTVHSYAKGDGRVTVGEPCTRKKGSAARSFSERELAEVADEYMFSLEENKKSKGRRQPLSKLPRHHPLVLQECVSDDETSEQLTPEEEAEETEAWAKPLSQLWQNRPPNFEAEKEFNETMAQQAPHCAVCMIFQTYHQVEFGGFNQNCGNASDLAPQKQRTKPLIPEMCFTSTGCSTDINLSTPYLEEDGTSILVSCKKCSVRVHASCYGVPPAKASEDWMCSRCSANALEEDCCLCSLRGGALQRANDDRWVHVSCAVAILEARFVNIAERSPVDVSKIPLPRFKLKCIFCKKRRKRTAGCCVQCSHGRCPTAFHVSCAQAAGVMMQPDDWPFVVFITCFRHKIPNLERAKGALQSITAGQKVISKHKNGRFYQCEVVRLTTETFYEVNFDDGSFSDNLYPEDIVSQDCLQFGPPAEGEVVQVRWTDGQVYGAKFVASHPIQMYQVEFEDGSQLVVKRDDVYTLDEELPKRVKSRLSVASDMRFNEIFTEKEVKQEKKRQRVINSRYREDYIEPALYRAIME

[13] = target: Lysine-specific demethylase 4C (Homo sapiens, UniProt Q9H3R0); assay: GASC-1 (JMJD2C) histone demethylase inhibitors, dose response, biochemical, DELFIA europium, cherry-picked samples (AID 488835); format: functional
[14] = target: T5, Voltage-gated N-type calcium channel alpha-1B subunit/Amyloid beta A4 precursor protein-binding family A member 1; assay: disruptors of Mint-PDZ/N-type channel peptide interaction – biochemical, HTRF, SAR follow-up (AID 2489); format: functional
[15] = target: T7, Glutathione-S-transferase (Schistosoma japonicum, UniProt Q26513); assay: biotin-GST/anti-GST TR-FRET signal inhibitors, dose response, artefact control for Vif-APOBEC3G degradation inhibitor project, biochemical (AID 1117362); format: functional
T7 sequence (Q26513 whole entry): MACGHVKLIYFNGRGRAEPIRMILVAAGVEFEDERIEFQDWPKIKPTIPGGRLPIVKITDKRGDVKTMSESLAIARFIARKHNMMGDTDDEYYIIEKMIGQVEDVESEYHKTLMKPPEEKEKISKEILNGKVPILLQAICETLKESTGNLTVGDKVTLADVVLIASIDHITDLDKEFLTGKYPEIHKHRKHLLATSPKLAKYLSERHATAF

[16] = target: T8, Dual specificity protein phosphatase 3 (Homo sapiens, UniProt P51452); assay: VHR1 phosphatase inhibitors, primary screen, biochemical, absorbance, uHTS (AID 1654)
[17] = target: T8, Dual specificity protein phosphatase 3; assay: VHR1 phosphatase inhibitors, biochemical (AID 1878)
[18] = target: T9, Dual specificity protein phosphatase 6 (Rattus norvegicus, UniProt Q64346); assay: MKP-3 phosphatase inhibitors, primary screen, biochemical, rat enzyme, in vitro (AID 425)
T9 sequence (Q64346 whole entry): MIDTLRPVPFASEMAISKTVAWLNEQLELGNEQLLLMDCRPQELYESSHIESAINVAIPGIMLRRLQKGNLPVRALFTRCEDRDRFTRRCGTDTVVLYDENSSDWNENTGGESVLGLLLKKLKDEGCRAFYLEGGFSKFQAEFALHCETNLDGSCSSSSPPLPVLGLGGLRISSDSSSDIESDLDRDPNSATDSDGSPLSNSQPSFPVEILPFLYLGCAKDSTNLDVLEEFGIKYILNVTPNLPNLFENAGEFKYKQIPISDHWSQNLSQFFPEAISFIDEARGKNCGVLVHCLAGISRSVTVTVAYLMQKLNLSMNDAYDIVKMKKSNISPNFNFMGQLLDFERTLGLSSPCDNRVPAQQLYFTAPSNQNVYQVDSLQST

[19] = target: Induced myeloid leukemia cell differentiation protein Mcl-1 (Homo sapiens, UniProt Q07820); format: functional
[20] = target: DNA (cytosine-5)-methyltransferase 1 (Homo sapiens, UniProt P26358); assay: DNMT1 methyltransferase inhibitors, confirmation, biochemical, fluorescent molecular beacon (AID 602386); format: functional

T5 sequence (Q00975 whole entry): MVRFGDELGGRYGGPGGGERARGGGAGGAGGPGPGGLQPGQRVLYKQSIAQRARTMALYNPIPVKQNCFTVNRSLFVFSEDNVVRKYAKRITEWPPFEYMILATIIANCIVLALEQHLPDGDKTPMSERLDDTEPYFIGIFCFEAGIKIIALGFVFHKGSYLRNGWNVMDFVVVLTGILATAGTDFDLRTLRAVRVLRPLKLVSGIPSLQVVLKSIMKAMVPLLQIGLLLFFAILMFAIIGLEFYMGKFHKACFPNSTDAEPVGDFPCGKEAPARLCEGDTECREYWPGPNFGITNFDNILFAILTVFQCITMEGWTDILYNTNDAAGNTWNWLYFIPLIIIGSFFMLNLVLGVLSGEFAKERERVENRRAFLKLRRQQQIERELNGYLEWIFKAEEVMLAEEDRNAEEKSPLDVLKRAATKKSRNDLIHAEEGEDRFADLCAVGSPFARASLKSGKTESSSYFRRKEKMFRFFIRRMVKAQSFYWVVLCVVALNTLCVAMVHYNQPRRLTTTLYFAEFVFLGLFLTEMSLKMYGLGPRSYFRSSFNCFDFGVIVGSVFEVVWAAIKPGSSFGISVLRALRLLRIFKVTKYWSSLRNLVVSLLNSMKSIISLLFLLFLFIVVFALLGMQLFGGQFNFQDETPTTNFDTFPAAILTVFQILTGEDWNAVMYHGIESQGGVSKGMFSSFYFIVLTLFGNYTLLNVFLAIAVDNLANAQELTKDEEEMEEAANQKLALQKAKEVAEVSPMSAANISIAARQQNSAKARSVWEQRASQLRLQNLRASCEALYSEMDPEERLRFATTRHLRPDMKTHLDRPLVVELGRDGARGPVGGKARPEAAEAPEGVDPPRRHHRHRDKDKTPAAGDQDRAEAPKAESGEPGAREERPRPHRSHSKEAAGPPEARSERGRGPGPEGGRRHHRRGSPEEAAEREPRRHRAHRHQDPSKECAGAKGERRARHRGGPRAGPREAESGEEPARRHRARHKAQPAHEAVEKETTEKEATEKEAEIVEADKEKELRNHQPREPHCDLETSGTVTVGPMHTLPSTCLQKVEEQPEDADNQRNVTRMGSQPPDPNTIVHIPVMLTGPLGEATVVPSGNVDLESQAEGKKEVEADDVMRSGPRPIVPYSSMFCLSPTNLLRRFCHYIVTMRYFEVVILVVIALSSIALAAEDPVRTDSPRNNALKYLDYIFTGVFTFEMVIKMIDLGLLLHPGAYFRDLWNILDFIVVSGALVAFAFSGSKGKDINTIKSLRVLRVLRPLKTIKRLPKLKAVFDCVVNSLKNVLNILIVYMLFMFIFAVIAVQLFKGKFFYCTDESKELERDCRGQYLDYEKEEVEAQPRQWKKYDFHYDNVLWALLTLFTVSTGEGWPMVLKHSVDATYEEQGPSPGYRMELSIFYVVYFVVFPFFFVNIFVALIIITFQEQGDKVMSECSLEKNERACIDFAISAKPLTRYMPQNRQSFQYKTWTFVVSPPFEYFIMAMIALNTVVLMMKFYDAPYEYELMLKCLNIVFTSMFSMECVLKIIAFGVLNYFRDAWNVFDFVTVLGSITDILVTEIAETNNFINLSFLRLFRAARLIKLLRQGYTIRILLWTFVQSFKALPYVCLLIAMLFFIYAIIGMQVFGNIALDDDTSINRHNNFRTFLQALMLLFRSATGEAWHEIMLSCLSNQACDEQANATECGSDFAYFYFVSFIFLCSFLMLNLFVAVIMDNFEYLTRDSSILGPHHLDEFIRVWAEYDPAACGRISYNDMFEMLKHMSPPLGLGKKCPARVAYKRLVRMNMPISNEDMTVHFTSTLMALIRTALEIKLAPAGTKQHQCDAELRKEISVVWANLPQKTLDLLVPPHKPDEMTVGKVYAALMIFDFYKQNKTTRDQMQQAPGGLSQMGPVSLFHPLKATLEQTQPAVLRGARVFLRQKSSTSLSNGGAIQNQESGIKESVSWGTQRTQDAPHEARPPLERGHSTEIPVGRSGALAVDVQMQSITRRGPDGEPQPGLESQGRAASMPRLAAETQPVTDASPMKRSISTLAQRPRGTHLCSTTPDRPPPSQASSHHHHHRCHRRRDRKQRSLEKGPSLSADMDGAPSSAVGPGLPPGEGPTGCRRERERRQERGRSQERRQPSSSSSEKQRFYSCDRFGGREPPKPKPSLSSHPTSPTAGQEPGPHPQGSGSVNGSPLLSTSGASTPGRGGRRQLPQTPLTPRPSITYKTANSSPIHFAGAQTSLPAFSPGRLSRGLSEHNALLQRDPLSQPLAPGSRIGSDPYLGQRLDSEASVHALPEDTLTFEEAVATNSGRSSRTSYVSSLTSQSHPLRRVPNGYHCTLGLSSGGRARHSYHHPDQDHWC
T5 sequence (Q02410 whole entry): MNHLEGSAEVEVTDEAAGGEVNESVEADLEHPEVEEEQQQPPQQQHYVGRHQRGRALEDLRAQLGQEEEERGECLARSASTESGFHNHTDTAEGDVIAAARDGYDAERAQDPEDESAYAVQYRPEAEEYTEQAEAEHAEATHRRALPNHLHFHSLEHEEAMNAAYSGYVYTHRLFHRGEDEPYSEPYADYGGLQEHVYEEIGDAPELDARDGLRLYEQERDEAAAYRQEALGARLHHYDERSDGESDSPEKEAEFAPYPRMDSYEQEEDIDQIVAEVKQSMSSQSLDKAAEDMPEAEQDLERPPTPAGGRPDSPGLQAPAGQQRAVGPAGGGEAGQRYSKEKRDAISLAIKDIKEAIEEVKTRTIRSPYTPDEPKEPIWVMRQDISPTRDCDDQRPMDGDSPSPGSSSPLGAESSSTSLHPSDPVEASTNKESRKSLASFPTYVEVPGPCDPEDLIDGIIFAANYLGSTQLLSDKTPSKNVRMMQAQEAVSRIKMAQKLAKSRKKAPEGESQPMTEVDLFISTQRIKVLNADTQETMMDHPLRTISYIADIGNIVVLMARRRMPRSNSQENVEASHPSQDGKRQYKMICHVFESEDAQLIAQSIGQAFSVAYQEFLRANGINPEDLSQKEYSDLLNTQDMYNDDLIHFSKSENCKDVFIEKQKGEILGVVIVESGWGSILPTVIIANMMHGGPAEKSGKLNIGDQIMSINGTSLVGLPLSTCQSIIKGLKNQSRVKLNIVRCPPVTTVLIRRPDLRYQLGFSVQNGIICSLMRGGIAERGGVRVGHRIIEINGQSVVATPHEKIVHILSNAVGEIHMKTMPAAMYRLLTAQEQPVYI
T8 sequence (P51452 whole entry): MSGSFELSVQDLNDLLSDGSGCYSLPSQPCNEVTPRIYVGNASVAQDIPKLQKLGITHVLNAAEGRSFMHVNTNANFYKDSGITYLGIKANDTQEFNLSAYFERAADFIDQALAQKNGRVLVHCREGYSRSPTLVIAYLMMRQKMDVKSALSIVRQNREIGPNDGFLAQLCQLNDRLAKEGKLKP
Lysine-specific demethylase 4C, sequence (Q9H3R0 whole entry): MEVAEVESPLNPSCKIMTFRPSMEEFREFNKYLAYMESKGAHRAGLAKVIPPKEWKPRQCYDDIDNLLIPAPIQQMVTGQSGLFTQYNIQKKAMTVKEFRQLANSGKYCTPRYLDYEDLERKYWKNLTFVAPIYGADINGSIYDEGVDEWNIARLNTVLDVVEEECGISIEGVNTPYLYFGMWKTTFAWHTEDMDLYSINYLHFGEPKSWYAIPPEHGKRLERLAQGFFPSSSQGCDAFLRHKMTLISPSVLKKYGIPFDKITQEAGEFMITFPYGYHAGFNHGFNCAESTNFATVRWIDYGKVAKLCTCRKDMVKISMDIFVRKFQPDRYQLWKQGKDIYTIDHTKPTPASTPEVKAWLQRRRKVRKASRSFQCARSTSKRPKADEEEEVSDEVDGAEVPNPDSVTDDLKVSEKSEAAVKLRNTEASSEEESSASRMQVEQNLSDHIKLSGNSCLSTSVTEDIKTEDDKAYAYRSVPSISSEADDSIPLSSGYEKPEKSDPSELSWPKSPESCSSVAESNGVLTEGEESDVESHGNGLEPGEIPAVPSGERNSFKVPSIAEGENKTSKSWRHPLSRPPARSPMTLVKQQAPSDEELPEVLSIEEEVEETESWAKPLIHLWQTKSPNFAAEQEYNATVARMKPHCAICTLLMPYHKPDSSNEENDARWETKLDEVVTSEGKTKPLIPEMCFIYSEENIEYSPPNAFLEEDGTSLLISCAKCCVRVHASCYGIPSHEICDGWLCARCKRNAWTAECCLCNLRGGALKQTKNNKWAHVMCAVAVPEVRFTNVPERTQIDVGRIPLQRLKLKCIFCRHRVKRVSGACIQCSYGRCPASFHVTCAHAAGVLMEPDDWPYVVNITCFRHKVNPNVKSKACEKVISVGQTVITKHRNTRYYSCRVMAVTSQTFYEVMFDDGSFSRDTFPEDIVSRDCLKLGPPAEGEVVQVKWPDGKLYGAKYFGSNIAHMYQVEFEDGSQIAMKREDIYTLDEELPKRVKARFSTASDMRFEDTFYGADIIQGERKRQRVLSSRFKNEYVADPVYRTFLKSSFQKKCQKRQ
Induced myeloid leukemia cell differentiation protein Mcl-1, sequence (Q07820 whole entry): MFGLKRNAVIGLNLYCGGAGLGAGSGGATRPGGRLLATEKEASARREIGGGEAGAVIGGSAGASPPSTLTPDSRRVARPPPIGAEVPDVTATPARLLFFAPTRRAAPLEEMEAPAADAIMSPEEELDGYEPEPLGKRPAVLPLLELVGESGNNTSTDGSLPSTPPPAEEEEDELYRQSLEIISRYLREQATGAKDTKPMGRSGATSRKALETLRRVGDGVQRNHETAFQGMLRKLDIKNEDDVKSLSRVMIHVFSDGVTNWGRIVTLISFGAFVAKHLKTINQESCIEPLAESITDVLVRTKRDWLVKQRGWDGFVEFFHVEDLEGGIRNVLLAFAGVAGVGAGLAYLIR

Q: For `COc1ccc(S(=O)(=O)Nc2ccc(O)c(Sc3nnc[nH]3)c2)cc1`, which IC50 [1] is on record?
A: Its IC50 is 25 µM (active).

Q: What about the EC50 [2] of the same molecule?
A: The EC50 was 10.4 µM (active).

Q: What about the EC50 [3] of the same molecule?
A: Its EC50 is 8.48 µM (active).

Q: What about the EC50 [4] of the same molecule?
A: Its EC50 is 79.6 µM (active).

Q: What about the EC50 [5] of the same molecule?
A: The EC50 was 63.4 µM (active).

Q: And the EC50 [6]?
A: Its EC50 is 62.8 µM (active).

Q: For `Nc1c(C(=O)NC2CC2)sc2nc3c(c(-c4ccco4)c12)CC/C3=C/c1ccco1`, which IC50 [7] is on record?
A: Its IC50 is 13.1 µM (active).

Q: And the IC50 [8]?
A: Its IC50 is 5.48 µM (active).

Q: And the IC50 [9]?
A: Its IC50 is 3.99 µM (active).

Q: What about the IC50 [10] of the same molecule?
A: Its IC50 is > 71.5 µM (inactive).

Q: What about the IC50 [11] of the same molecule?
A: The IC50 was 1.04 µM (active).

Q: What about the AC50 [12] of the same molecule?
A: Its AC50 is 6.07 µM (active).

Q: And the AC50 [13]?
A: Its AC50 is 4.71 µM (active).

Q: What about the IC50 [14] of the same molecule?
A: Its IC50 is 17.2 µM (active).

Q: And the IC50 [15]?
A: Its IC50 is 54 µM (active).

Q: What does the source list for `Cc1ccc(NC(=O)CN2C(=O)S/C(=C\c3cccn3-c3cccc(C(=O)O)c3)C2=O)c(C)c1`?
A: IC50 [16]: 3.25 µM (active); EC50 [2]: > 300 µM (not active); EC50 [3]: > 300 µM (not active); IC50 [17]: 1.89 µM (active); IC50 [18]: 7.9 µM (active); IC50 [19]: > 54 µM (active); IC50 [20]: 9.17 µM (active)
